Results reported in US9062095B2, “Mutant double cyclized receptor peptides inhibiting β1-adrenoceptor antibodies” (JULIUS-MAXIMILIANS-UNIVERSTITAT-WURZBURG, priority 2007, dated 2015).
Positions of bridges follow the written chain, without caps; N, C: chain ends. Non-standard residues stand in square brackets, D forms with d.

Assays:
anti-β1-ECII antibodies = assay: ELISA-competition assay: peptide preincubated with sera/IgG of immunized antibody-positive rats, linear 25AA Cys/Cys-peptide as antigen; type: binding, rat; design: blocking capacity (% of blocked versus non-blocked ELISA-reactivity): concentration or dose not given beside the values; conditions: for blocking capacity (% of blocked versus non-blocked ELISA-reactivity): IgG from n=78 immunized antibody-positive rats, preincubation 12 h, 4° C., mutants with D-Glu ring closure (FIG. 7); for blocking capacity (% of blocked versus non-blocked ELISA-reactivity) / blocking efficiency (% of blocked versus non-blocked ELISA reactivity) / blocking capacity (% of blocked versus non-blocked ELISA reactivity): ±SEM; for blocking efficiency (% of blocked versus non-blocked ELISA reactivity): type1 sera (93%, n=64 of 69), FIG. 9 upper panel; for blocking capacity (% of blocked versus non-blocked ELISA reactivity): type 2 sera (7%, n=5 of 69), FIG. 9 lower panel; for ability to significantly block antibody-binding to the β1-ECII-antigen: IgG-fractions from 12 rats, 18AA mutants with D-Glu ring closure (FIG. 4); for fraction of rat sera blocked by the peptide: n=82 sera, D-Glu ring closure (FIG. 8), Cys/Ser = blocked by it alone, Ser/Cys = sera blocked by both mutants
Protocol: FIG. 9 is a diagram composed of two major-(upper and lower) panels resuming the blocking effect of both 25AA- and 18AA-cyclopeptide mutants having a Gln closure site, as well as 18AA cyclopeptide mutants having a D-Glu closure site after preincubation (12 h, 4° C., rotating incubation) with sera isolated from 69 different immunized antibody-positive rats in an ELISA-competition assay using the 3 Cys-containing linear 25AA Cys/Cys-peptide as an antigen. The upper panel depicts rat sera preferentially reacting with the Cys/Ser mutated cyclopeptides (type1 reaction, n=64), separated in cyc25AA(Gln)-peptides (left) and cyc18AA(Gln and D-Glu)-peptides (right). The lower panel depicts the rat sera reacting with both the Cys/Ser and the Ser/Cys mutated cyclopeptides (type2 reaction, n=5), again separated in the results obtained with cyc25AA(Gln)-peptides (left) and cyc18AA(Gln and D-Glu)-peptides (right).
FIG. 11 is a diagram resuming the dose-dependent (x-axis, abscissa: fold molar excess of specific peptides) blocking capacity of various linear and cyclic beta1-ECII-peptides given in % of the unblocked antibody-titer (y-axis, ordinate), including 25AA Cys/Cys linear peptides (black squares), 25AA Cys/Ser cyclopeptide mutants (white squares), 18AA Cys/Cys cyclo-peptides (black diamonds), 18AA Cys/Ser cyclopeptide mutants (white diamonds), and 18AA Cys/Ser linear peptide mutants (vertically hatched diamonds) in an ELISA competition assay performed with sera from n=6 randomly chosen immunized antibody-positive rats.
FIGS. 27A and B depict the in vitro blocking (=neutralization) capacity of various cysteine-containing cyclopeptide variants of the second extracellular loop (ECII) of the human beta1-adrenergic receptor, determined by testing n=6 individual sera (27A) of immunized beta1-ECII-antibody-positive rats after over-night incubation with the indicated cyclopeptides (12-14 h, 4° C.) by ELISA. Columns in 27A represent the receptor-antibody blocking efficiency of the indicated cyclopeptides in % of the antibody-(ELISA-)signals obtained with unblocked antibody-positive rat sera. Columns in 27B represent the mean blocking efficiency for each cyclopeptide, error bars indicate ±SEM.
The blocking capacity of β1-ECII-18AA cyclopeptide mutants (Cys13-Ser14 or Ser13-Cys14 mutation having an additional D-Glu-Gln exchange, e.g. at the ring closure site) was compared with the 3 Cys-containing 25AA or 18AA Cys/Cys cyclopeptides after preincubation (12 h, 4° C., rotating incubation over-night) of different numbers of sera from immunized antibody-positive rats in an ELISA-competition assay using the 3 Cys-containing linear 25AA Cys/Cys-peptide as an antigen. FIGS. 4, 5, and 7-10 show the results from measurements performed with sera of n=12 up to n=82 immunized antibody-positive rats using different cyclopeptides of the present invention.

[1] = test system: antibody-induced cellular cAMP-production of HEK 293-β1 cells (β1-receptor-mediated signalling); assay: functional cAMP-assay by fluorescence resonance energy transfer (FRET); type: cell-based, human; conditions: anti-β1-ECII IgG of a representative rat, preincubation 12 h, 4° C. (FIG. 6)
Protocol: FIG. 6 is a diagram depicting the blocking capacity of β1-ECII-18AA cyclopeptide mutants having a D-Glu ring closure on β1-receptor-mediated signalling (functional cAMP-assay) using an approach by fluorescence resonance energy transfer (FRET). The effect of the preincubation (12 h, 4° C., rotating incubator) of anti-β1-ECII IgG antibodies of a representative rat (serum) (FIG. 4, rat number 4) with β1-ECII-18AA-cyclopeptide mutants (Cys/Ser mutation, dark blue (3); Ser/Cys mutation, light blue (4)) was compared with the effect of a 3 Cys-containing 25AA Cys/Cys cyclopeptide (red (2)) or the result obtained with anti-β1-ECII IgG antibodies in the absence of blocking peptides (black (1)). The y-axis represents the normalized YFP/CFP-ratio of the registered FRET emission signals, the x-axis corresponds to the registration time given in seconds (s).
The blocking capacity of β1-ECII 25AA or 18AA cyclopeptide mutants (having a D-Glu/Gln at the ring closure site or not) on β1-receptor-mediated signalling (functional cAMP-assay) was assayed using an approach by fluorescence resonance energy transfer (FRET) (FIG. 6).
The effect of the pre-incubation (12 h, 4° C., rotating incubator) of anti-β1-ECII IgG antibodies of a representative rat with β1-ECII-18AA cyclopeptide mutants (Cys/Ser or Ser/Cys mutations, respectively) was compared with the inhibitory effect of a 3 Cys-containing 25AA Cys/Cys cyclopeptide or with the effect of anti-β1-ECII IgG antibodies not incubated with blocking peptides. The normalized YFP/CFP-ratio of the registered FRET emission signals served to quantify the effect of the cyclopeptide mutants of the present invention in terms of blockade (in percent) of antibody-induced cellular cAMP-production of transiently Epac1-transfected stably β1-AR expressing human embryonic kidney cells (HEK 293-β1 cells). The x-axis in FIG. 6 corresponds to the registration time given in seconds (s).

Substance | blocking capacity (% of blocked versus non-blocked ELISA-reactivity) (anti-β1-ECII antibodies) [%] | blocking efficiency (% of blocked versus non-blocked ELISA reactivity) (anti-β1-ECII antibodies) [%] | blocking capacity (% of blocked versus non-blocked ELISA reactivity) (anti-β1-ECII antibodies) [%] | inhibition of functional antibody-effects (blocking intracellular cAMP-increases) [1] | blocking effect compared with the 3 Cys-containing β1-ECII-18AA Cys/Cys cyclopeptide (anti-β1-ECII antibodies; IgG-fractions from 12 rats (FIG. 4)) | ability to significantly block antibody-binding to the β1-ECII-antigen (anti-β1-ECII antibodies) | blocking of receptor antibodies versus Ser/Cys counterpart or linear 25AA Cys/Cys peptide (anti-β1-ECII antibodies; dose-titration, two to eight-fold molar excess, one representative serum (FIG. 5)) | fraction of rat sera blocked by the peptide (anti-β1-ECII antibodies; listed as ECII-18AA Cys/Ser mutant) [%] | fraction of rat sera blocked by the peptide (anti-β1-ECII antibodies; listed as β1-ECII-18AA Cys/Ser mutated cyclopeptide (D-Glu ring closure)) | fraction of rat sera blocked by the peptide (anti-β1-ECII antibodies; listed as 18AA Ser/Cys-mutants) | fraction of rat sera blocked by the peptide (anti-β1-ECII antibodies; listed as cyclic ECII-18AA Ser/Cys mutants) [%]
cyclo(Ala-Arg-Ala-Glu-Ser-Asp-Glu-Ala-Arg-Arg-Cys-Tyr-Asn-Asp-Pro-Lys-Ser-Cys-Asp-Phe-Val-Thr-Asn-Arg-Gln) (cyclo(ARAESDEARRCYNDPKSCDFVTNRQ); disulfide 11-18 (inferred)) [25AA Ser/Cys] | 6±2 | 6±2 | 37±7 | almost no inhibitory effect |  |  |  |  |  |  | 
cyclo(Ala-Asp-Glu-Ala-Arg-Arg-Cys-Tyr-Asn-Asp-Pro-Lys-Cys-Ser-Asp-Phe-Val-DGlu) (cyclo(ADEARRCYNDPKCSDFV[dE]); disulfide 7-13 (inferred)) | 69±2 | 69±2 | 47±5 | largely superior to its Ser/Cys counterpart, and even slightly more effective than a 3 Cys-containing 25AA Cys/Cys cyclopeptide | comparable or (in more than half of the sera analyzed n=8/12) was even more effective | able to significantly block | consistently largely superior | > 95 | About 95% |  | 
cyclo(Ala-Asp-Glu-Ala-Arg-Arg-Cys-Tyr-Asn-Asp-Pro-Lys-Ser-Cys-Asp-Phe-Val-DGlu) (cyclo(ADEARRCYNDPKSCDFV[dE]); disulfide 7-14 (inferred)) [18AA Ser/Cys with D-Glu-closure] | 1±2 | 1±2 | 33±5 | almost no inhibitory effect |  | not |  |  |  | about 5% | < 5
